In publication PMC10342533, “Novel Tetrazole Derivatives Targeting Tubulin Endowed with Antiproliferative Activity against Glioblastoma Cells” (International Journal of Molecular Sciences, 2023):
Values after ≈ are worked out from the molar mass of the structure shown.

Legend:
[1] = system: HepG2 (hepatocellular carcinoma); experiment: Cell growth inhibition, MTT assay, HepG2; assay type: cell-based; conditions: Homo sapiens
Experimental: (§1) The ability of the synthesized compounds to inhibit the cell proliferation of human cancer cell lines was assayed by measuring cell viability through the use of the MTT method 72 h after treatment. For this purpose, representative cell lines of the most frequent kinds of cancer were selected, including the following: HeLa (cervix epithelioid carcinoma), MCF7 (breast adenocarcinoma), U87 MG (glioblastoma), T98G (temozolomide resistant glioblastoma), HepG2 (hepatocellular carcinoma), HCT8 (colorectal carcinoma), and HT-29 (colon adenocarcinoma).
(§2) The cell lines were obtained from ATTC (Manassas, VA, USA). […] The cells were periodically tested for Mycoplasma infection by using a MycoAlert kit (Lonza, Norwest, Australia), and only Mycoplasma-free cells were used in the experiments.
(§3) Then, every compound was added (10 µL/well) to a final concentration of 10 µM. Untreated cells were used as negative controls. The antiproliferative activity of compounds was measured 72 h after drug exposure through the MTT assay. […] For this purpose, compounds were used at different concentrations, ranging from 10^−10 to 10^−2 M. Measurements were performed in triplicate, and each experiment was repeated three times. The IC50 values were determined using Origin software (version 9.6, OriginLab, Washington, DC, USA).

[2] = system: HEK-293 (embryonic kidney); experiment: Cell growth inhibition, MTT assay, non-tumor HEK-293; assay type: cell-based; conditions: Homo sapiens
Experimental: The ability of the synthesized compounds to inhibit the cell proliferation of human cancer cell lines was assayed by measuring cell viability through the use of the MTT method 72 h after treatment. For this purpose, representative cell lines of the most frequent kinds of cancer were selected, including the following: HeLa (cervix epithelioid carcinoma), MCF7 (breast adenocarcinoma), U87 MG (glioblastoma), T98G (temozolomide resistant glioblastoma), HepG2 (hepatocellular carcinoma), HCT8 (colorectal carcinoma), and HT-29 (colon adenocarcinoma). […] The compounds were also tested against the non-tumor HEK-293 cells to study their selectivity toward cancer cells. […] The cell lines were obtained from ATTC (Manassas, VA, USA). […] The cells were periodically tested for Mycoplasma infection by using a MycoAlert kit (Lonza, Norwest, Australia), and only Mycoplasma-free cells were used in the experiments. […] Louis, MO, USA), which was dissolved in PBS at 5 mg/mL in accordance with the manufacturer's instructions. […] Untreated cells were used as negative controls. The antiproliferative activity of compounds was measured 72 h after drug exposure through the MTT assay. […] For this purpose, compounds were used at different concentrations, ranging from 10^-10 to 10^-2 M. Measurements were performed in triplicate, and each experiment was repeated three times. The IC50 values were determined using Origin software (version 9.6, OriginLab, Washington, DC, USA).

[3] = system: HeLa (cervix epithelioid carcinoma); experiment: Cell growth inhibition, MTT assay, HeLa; assay type: cell-based; conditions: Homo sapiens
Experimental: as §1, §2, §3

[4] = system: T98G (temozolomide resistant glioblastoma); experiment: Cell growth inhibition, MTT assay, T98G; assay type: cell-based; conditions: Homo sapiens
Experimental: as §1, §2, §3

[5] = biological target: T1, microtubular protein isolated from calf brains (bovine brain tubulin) (Bos taurus, UniProt P81947+Q6B856); experiment: Tubulin polymerization inhibition (TPI); assay type: biochemical; conditions: in vitro tubulin polymerization, mean ± SD
T1 construct: from tissue; host or cells: calf (bovine) brain
T1 sequence (Q6B856 whole entry): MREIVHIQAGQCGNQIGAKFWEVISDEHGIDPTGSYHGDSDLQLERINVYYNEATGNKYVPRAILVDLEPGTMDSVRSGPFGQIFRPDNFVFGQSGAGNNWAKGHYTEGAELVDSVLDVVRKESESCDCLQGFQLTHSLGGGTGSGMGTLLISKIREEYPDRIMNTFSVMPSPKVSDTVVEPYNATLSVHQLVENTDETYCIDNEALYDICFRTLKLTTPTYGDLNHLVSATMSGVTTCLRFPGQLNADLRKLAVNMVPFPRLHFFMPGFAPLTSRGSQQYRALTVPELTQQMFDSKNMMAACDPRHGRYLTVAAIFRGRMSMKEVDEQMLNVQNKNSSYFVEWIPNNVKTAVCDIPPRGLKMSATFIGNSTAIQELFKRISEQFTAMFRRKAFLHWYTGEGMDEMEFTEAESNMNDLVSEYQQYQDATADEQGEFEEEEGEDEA
T1 sequence (P81947 whole entry): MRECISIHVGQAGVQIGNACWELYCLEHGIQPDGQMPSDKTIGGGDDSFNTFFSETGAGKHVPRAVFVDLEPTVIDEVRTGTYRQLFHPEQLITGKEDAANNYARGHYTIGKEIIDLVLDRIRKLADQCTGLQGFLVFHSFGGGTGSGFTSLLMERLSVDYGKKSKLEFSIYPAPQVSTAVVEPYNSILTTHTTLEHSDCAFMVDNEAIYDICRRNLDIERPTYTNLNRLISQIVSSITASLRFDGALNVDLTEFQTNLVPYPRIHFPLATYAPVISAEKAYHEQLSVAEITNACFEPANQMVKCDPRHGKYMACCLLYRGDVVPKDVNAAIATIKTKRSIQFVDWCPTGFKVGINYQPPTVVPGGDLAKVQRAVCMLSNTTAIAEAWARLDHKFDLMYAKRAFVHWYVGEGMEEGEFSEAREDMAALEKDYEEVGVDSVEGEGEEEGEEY
Experimental: We evaluated the capacity of the new synthesized compounds to inhibit the polymerization of microtubular protein isolated from calf brains. The assays were performed by taking absorbance measurements to quantify the amount of polymer mass formed in the presence (or absence; negative controls) of the compounds.
Bovine brain tubulin was isolated as previously described by following a modified version of the Shelanski method. The protein was stored at −80 °C, and its concentration was determined by employing the Bradford method before each use. […] Tubulin polymerization, caused when heating the samples, was accompanied by an increase in the absorbance (at 450 nm) of the sample that was monitored by using a Helios α spectrophotometer. […] Measurements were performed in triplicate in two independent experiments using microtubular proteins from different preparations.

U87 MG (glioblastoma) = experiment: Cell growth inhibition, MTT assay, U87 MG; assay type: cell-based; conditions: Homo sapiens, U-87 MG
Experimental: as §1, §2, §3

[6] = system: MCF7 (breast adenocarcinoma); experiment: Cell growth inhibition, MTT assay, MCF7; assay type: cell-based; conditions: Homo sapiens
Experimental: as §1, §2, §3

[7] = system: HCT8 (colorectal carcinoma); experiment: Cell growth inhibition, MTT assay, HCT8; assay type: cell-based; conditions: Homo sapiens
Experimental: as §1, §2, §3

[8] = Aqueous solubility, shake-flask method, phosphate buffer pH 7.4; assay type: physicochemical; conditions: thermodynamic from solid, phosphate buffer pH 7.4, shake-flask, mean ± SD of three experiments
Experimental: The aqueous solubility of tetrazole derivatives was determined by the shaking flask methodology in phosphate buffer at pH 7.4, microfiltration, and quantification of the saturated solutions via UV spectroscopy. […] The introduction of polar groups on the 3-indole position was favorable since the most soluble compounds were the oximes 16–19 (38–53 µg/mL), followed by the carbaldehyde series 12–15 (33–45 µg/mL), and the carbonitrile derivatives (25–40 µg/mL), whereas the unsubstituted indoles 8–11 were the least soluble series (19–35 µg/mL).
The aqueous solubility of the compounds was determined using the saturation shake-flask method. First, calibration lines at the maximum wavelength of absorbance were determined for each compound. Then, 5 mg of each compound was suspended in 500 µL of pH 7.4 buffer, and the resulting mixture was shaken for 72 h at room temperature and filtrated over a […] filter to remove the insoluble fraction. The concentration of the compound in the supernatant (saturated solution) was determined by measuring UV absorbance at the maximum wavelength of absorbance and interpolation in the calibration line. A Helios Alfa Spectrophotometer was used for the UV measurements. The aqueous solubility values are given as the average of three independent experiments.

[9] = system: HT-29 (colon adenocarcinoma); experiment: Cell growth inhibition, MTT assay, HT-29, without or with verapamil; assay type: cell-based, human
Experimental: as §1
Multidrug resistance (MDR) proteins, especially P-glycoprotein (P-gp), are often involved in resistance mechanisms affecting tubulin-binding drugs that are frequently related to the failure of cancer therapies. […] These pumps are also part of the blood–brain barrier.
as §2, §3

[10] = HEK293, 72 h, non-tumorigenic cell line
[11] = HCT-8, 72 h after drug exposure
[12] = Homo sapiens, HT-29, 72 h after drug exposure
[13] = Homo sapiens, HT-29, mean ± SD, Table S1
[14] = mean ± SD, Table S1, in the presence of verapamil (10 µM)
[15] = HEK293, heading: IC50 HEK-293, mean ± SD, Table S1, non-tumorigenic cell line

SMILES | IC50 ([1]; 72 h after drug exposure) [nM] | IC50 ([1]; mean ± SD, Table S1) [nM] | IC50 [2, 10] [nM] | IC50 ([3]; 72 h after drug exposure) [nM] | IC50 ([3]; mean ± SD, Table S1) [nM] | IC50 ([4]; 72 h, 72 h after drug exposure) [nM] | IC50 ([4]; mean ± SD, Table S1) [nM] | IC50 [5] [nM] | IC50 (U87 MG (glioblastoma); 72 h after drug exposure) [nM] | IC50 (U87 MG (glioblastoma); mean ± SD, Table S1) [nM] | IC50 ([6]; 72 h after drug exposure) [nM] | IC50 ([6]; mean ± SD, Table S1) [nM] | IC50 [7, 11] [nM] | IC50 ([7]; HCT-8, mean ± SD, Table S1) [nM] | solubility at 72 h [8] [µg/mL] | IC50 [9, 12] [nM] | IC50 [9, 13] [nM] | IC50 [9, 14] [nM] | IC50 [2, 15] [nM]
Cn1cc(C=NO)c2cc(-n3nnnc3-c3cc(Cl)nc(Cl)c3)ccc21 [Compound 16, 5-(5-(2,6-dichloropyridin-4-yl)-1H-tetrazol-1-yl)-1-methyl-1H-indole-3-carbaldehyde oxime] | 220 | 220 ± 2.3 | 7010 | 207 | 207.1 ± 2 | 127 | 127.3 ± 0.9 | 3700 ± 200 | 131 | 131.3 ± 1.1 | 210 | 210.1 ± 1.9 | 219 | 219.1 ± 1.5 | 38.2 ± 0.4 (≈ 98.4 µM) | 211 | 211.1 ± 2 |  | 
COc1cc(-c2nnnn2-c2ccc3c(c2)c(C=NO)cn3C)cc(Cl)n1 [Compound 17, 5-(5-(2-chloro-6-methoxypyridin-4-yl)-1H-tetrazol-1-yl)-1-methyl-1H-indole-3-carbaldehyde oxime] | 229 |  | 7250 | 220 | 220.2 ± 1.9 | 181 | 181.4 ± 1.5 | 3800 ± 100 | 155 | 155.2 ± 1.3 | 215 |  | 227 |  | 53 ± 0.3 (≈ 138 µM) | 238 |  | 230 ± 2.5 | 
CSc1cc(-c2nnnn2-c2ccc3c(c2)c(C=NO)cn3C)cc(Cl)n1 [Compound 18, 5-(5-(2-chloro-6-(methylsulfanyl)pyridin-4-yl)-1H-tetrazol-1-yl)-1-methyl-1H-indole-3-carbaldehyde oxime] | 127 |  | 6130 | 131 |  | 102 | 102 ± 1.1 | 3300 ± 100 | 93 | 93.4 ± 1 | 123 | 123 ± 1.7 | 115 | 115 ± 1.3 | 42.7 ± 0.5 (≈ 107 µM) | 152 | 152.3 ± 1.4 | 150 ± 1.6 | 
CSc1cc(-c2nnnn2-c2ccc3c(c2)c(C=NO)cn3C)cc(SC)n1 [Compound 19, 5-(5-(2,6-bis(methylsulfanyl)pyridin-4-yl)-1H-tetrazol-1-yl)-1-methyl-1H-indole-3-carbaldehyde oxime] | 341 | 341.4 ± 3.3 | 8310 | 307 | 307.1 ± 2.8 | 294 | 294 ± 3 | 4300 ± 200 | 275 | 275 ± 2.8 | 339 | 339.5 ± 2.4 | 333 | 333.2 ± 2.7 | 47.8 ± 0.6 (≈ 116 µM) | 355 | 355.5 ± 2.3 | 359 ± 4.1 | 
Cn1cc(C#N)c2cc(-n3nnnc3-c3cc(Cl)nc(Cl)c3)ccc21 [Compound 20, 5-(5-(2,6-dichloropyridin-4-yl)-1H-tetrazol-1-yl)-1-methyl-1H-indole-3-carbonitrile] | 634 | 634.5 ± 5.6 | > 10000 | 625 | 625.4 ± 4.2 | 555 | 555.4 ± 4.2 | 6200 ± 300 | 522 | 522.1 ± 3.1 | 631 | 631.4 ± 4.9 | 628 |  | 25.3 ± 0.1 (≈ 68.3 µM) | 679 | 679.4 ± 4 | 682.3 ± 6.3 | > 10000
COc1cc(-c2nnnn2-c2ccc3c(c2)c(C#N)cn3C)cc(Cl)n1 [Compound 21, 5-(5-(2-chloro-6-methoxypyridin-4-yl)-1H-tetrazol-1-yl)-1-methyl-1H-indole-3-carbonitrile] | 740 | 740.3 ± 6.4 | > 10000 | 722 | 722.1 ± 5 | 689 | 689 ± 7.5 | 6900 ± 300 | 634 |  | 701 | 701.5 ± 5.2 | 705 | 705.4 ± 4.9 | 39.7 ± 0.4 (≈ 109 µM) | 749 | 749.5 ± 5.1 | 756.2 ± 5.6 | > 10000
